Test results taken from ChEMBL document CHEMBL1130909, “General construction pattern of histamine H3-receptor antagonists: change of a paradigm” (Bioorg Med Chem Lett, 1998).

What follows are compounds tested against Histamine H3 receptor (Rattus norvegicus, UniProt Q9QYN8) (assay: In vitro Histamine H3 receptor antagonist activity in an assay with K+-evoked depolarization-induced release of [3H]histamine from synaptosomes of rat cerebral cortex).
Histamine H3 receptor, sequence (Q9QYN8 whole entry): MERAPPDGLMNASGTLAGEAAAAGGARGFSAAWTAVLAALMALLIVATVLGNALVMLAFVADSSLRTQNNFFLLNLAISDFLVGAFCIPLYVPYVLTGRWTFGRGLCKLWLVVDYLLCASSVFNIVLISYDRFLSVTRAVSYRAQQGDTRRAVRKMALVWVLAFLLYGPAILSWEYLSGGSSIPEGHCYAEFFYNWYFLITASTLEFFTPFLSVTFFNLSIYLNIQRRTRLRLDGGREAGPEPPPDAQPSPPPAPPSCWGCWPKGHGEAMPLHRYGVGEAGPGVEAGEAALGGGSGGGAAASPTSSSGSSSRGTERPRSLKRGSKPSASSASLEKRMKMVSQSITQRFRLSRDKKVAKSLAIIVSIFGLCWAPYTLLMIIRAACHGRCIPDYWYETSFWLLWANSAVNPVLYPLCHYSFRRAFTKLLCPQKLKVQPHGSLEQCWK
Type: functional, subcellular, Brain
Compound `C(=C\CCc1c[nH]cn1)/CCc1ccccc1` has a Ki of 42 nM.
Work on `CCCCCCCCCc1c[nH]cn1` yielded a Ki of 400 nM.
`CCCCCCC/C=C\c1c[nH]cn1` gave a Ki greater than 500 nM.
